Laboratory results: patent US8367365B2, “Method for determining carbohydrate and kit for determining carbohydrate” (priority 2008, dated 2013)
Like-named read-outs stand apart in the source and are kept apart here.

Tested on: porcine small intestinal mucosal disaccharidase (suspension of porcine small intestinal mucosal brush border membrane)
Assay type: in vitro ADME
Conditions: porcine small intestine-derived disaccharidase added to the enzyme reaction system, HPLC
Description: In the method for determining a carbohydrate according to the embodiment of the present invention and the method for determining a carbohydrate according to Examples described below, a suspension of porcine small intestinal mucosal brush border membrane is used as the animal-derived low-molecular-weight carbohydrate digestive enzyme.

Digestion by porcine small intestinal mucosal disaccharidases (result in words): almost completely digested | Digestion by porcine small intestinal mucosal disaccharidases (result in words) (listed as Sucrose): completely digested
Compound: OC[C@H]1O[C@@](CO)(O[C@H]2O[C@H](CO)[C@@H](O)[C@H](O)[C@H]2O)[C@@H](O)[C@@H]1O [sucrose]
